Experimental data published in patent US20220411422A1, “ERBB RECEPTOR INHIBITORS” (Dizal (Jiangsu) Pharmaceutical Co., Ltd., priority 2018, published 2022).

Assay: Clinical study on safety in patients with HER2+ MBC
Type: in vivo, human
Excerpt: […] All patients had prior anti-HER2 antibody and chemotherapy treatment. Majority of patients ([…]) also had prior anti-HER2 small molecule treatment.

[1] = 100 mg (N = 4), CTCAE Grade All
[2] = 200 mg (N = 5), CTCAE Grade All
[3] = HER2+ MBC patients, oral twice daily, doses tested
[4] = Total (N = 14), CTCAE Grade All

## COc1cc(O[C@H]2CCN(C)CC2(F)F)c2c(Nc3ccc(Oc4ccn5ncnc5c4)c(C)c3)ncnc2c1 (single isomer, unassigned) [Compound 6]
25 mg (N = 1), CTCAE Grade All
  TEAE Anaemia, patients: 0
  TEAE Aspartate aminotransferase increased, patients: 0
  TEAE Bilirubin conjugated increased, patients: 0
  TEAE Blood bilirubin increased, patients: 1
  TEAE Blood bilirubin unconjugated increased, patients: 1
  TEAE Blood creatinine increased, patients: 0
  TEAE Fatigue, patients: 0
  TEAE Haemoglobin decreased, patients: 0
  TEAE Headache, patients: 0
  TEAE Lipase increased, patients: 0
  TEAE Pain, patients: 0
  TEAE Platelet count decreased, patients: 0
  TEAE Proteinuria, patients: 0
  TEAE Vomiting, patients: 0
25 mg (N = 1), CTCAE Grade ≥3
  TEAE Anaemia, patients: 0
  TEAE Aspartate aminotransferase increased, patients: 0
  TEAE Bilirubin conjugated increased, patients: 0
  TEAE Blood bilirubin increased, patients: 0
  TEAE Blood bilirubin unconjugated increased, patients: 0
  TEAE Blood creatinine increased, patients: 0
  TEAE Fatigue, patients: 0
  TEAE Haemoglobin decreased, patients: 0
  TEAE Headache, patients: 0
  TEAE Lipase increased, patients: 0
  TEAE Pain, patients: 0
  TEAE Platelet count decreased, patients: 0
  TEAE Proteinuria, patients: 0
  TEAE Vomiting, patients: 0
50 mg (N = 4), CTCAE Grade All
  TEAE Anaemia, patients: 1
  TEAE Aspartate aminotransferase increased, patients: 1
  TEAE Bilirubin conjugated increased, patients: 0
  TEAE Blood bilirubin increased, patients: 0
  TEAE Blood bilirubin unconjugated increased, patients: 0
  TEAE Blood creatinine increased, patients: 1
  TEAE Fatigue, patients: 0
  TEAE Haemoglobin decreased, patients: 1
  TEAE Headache, patients: 1
  TEAE Lipase increased, patients: 2
  TEAE Pain, patients: 1
  TEAE Platelet count decreased, patients: 1
  TEAE Proteinuria, patients: 1
  TEAE Vomiting, patients: 0
50 mg (N = 4), CTCAE Grade ≥3
  TEAE Anaemia, patients: 0
  TEAE Aspartate aminotransferase increased, patients: 0
  TEAE Bilirubin conjugated increased, patients: 0
  TEAE Blood bilirubin increased, patients: 0
  TEAE Blood bilirubin unconjugated increased, patients: 0
  TEAE Blood creatinine increased, patients: 0
  TEAE Fatigue, patients: 0
  TEAE Haemoglobin decreased, patients: 0
  TEAE Headache, patients: 0
  TEAE Lipase increased, patients: 0
  TEAE Pain, patients: 0
  TEAE Platelet count decreased, patients: 0
  TEAE Proteinuria, patients: 0
  TEAE Vomiting, patients: 0
[1]
  TEAE Anaemia, patients: 2
  TEAE Aspartate aminotransferase increased, patients: 0
  TEAE Bilirubin conjugated increased, patients: 0
  TEAE Blood bilirubin increased, patients: 0
  TEAE Blood bilirubin unconjugated increased, patients: 0
  TEAE Blood creatinine increased, patients: 0
  TEAE Fatigue, patients: 1
  TEAE Haemoglobin decreased, patients: 0
  TEAE Headache, patients: 2
  TEAE Lipase increased, patients: 0
  TEAE Pain, patients: 0
  TEAE Platelet count decreased, patients: 1
  TEAE Proteinuria, patients: 0
  TEAE Vomiting, patients: 1
100 mg (N = 4), CTCAE Grade ≥3
  TEAE Anaemia, patients: 0
  TEAE Aspartate aminotransferase increased, patients: 0
  TEAE Bilirubin conjugated increased, patients: 0
  TEAE Blood bilirubin increased, patients: 0
  TEAE Blood bilirubin unconjugated increased, patients: 0
  TEAE Blood creatinine increased, patients: 0
  TEAE Fatigue, patients: 0
  TEAE Haemoglobin decreased, patients: 0
  TEAE Headache, patients: 0
  TEAE Lipase increased, patients: 0
  TEAE Pain, patients: 0
  TEAE Platelet count decreased, patients: 0
  TEAE Proteinuria, patients: 0
  TEAE Vomiting, patients: 0
[2]
  TEAE Anaemia, patients: 1
  TEAE Aspartate aminotransferase increased, patients: 1
  TEAE Bilirubin conjugated increased, patients: 2
  TEAE Blood bilirubin increased, patients: 2
  TEAE Blood bilirubin unconjugated increased, patients: 1
  TEAE Blood creatinine increased, patients: 1
  TEAE Fatigue, patients: 1
  TEAE Haemoglobin decreased, patients: 3
  TEAE Headache, patients: 1
  TEAE Lipase increased, patients: 1
  TEAE Pain, patients: 1
  TEAE Platelet count decreased, patients: 1
  TEAE Proteinuria, patients: 2
  TEAE Vomiting, patients: 2
200 mg (N = 5), CTCAE Grade ≥3
  TEAE Anaemia, patients: 0
  TEAE Aspartate aminotransferase increased, patients: 0
  TEAE Bilirubin conjugated increased, patients: 1
  TEAE Blood bilirubin increased, patients: 0
  TEAE Blood bilirubin unconjugated increased, patients: 0
  TEAE Blood creatinine increased, patients: 0
  TEAE Fatigue, patients: 0
  TEAE Haemoglobin decreased, patients: 0
  TEAE Headache, patients: 0
  TEAE Lipase increased, patients: 0
  TEAE Pain, patients: 0
  TEAE Platelet count decreased, patients: 0
  TEAE Proteinuria, patients: 0
  TEAE Vomiting, patients: 0
[3]
  dose limiting toxicities: no dose limiting toxicities observed
  tolerability: well tolerated
[4]
  TEAE Anaemia, patients: 4
  TEAE Aspartate aminotransferase increased, patients: 2
  TEAE Bilirubin conjugated increased, patients: 2
  TEAE Blood bilirubin increased, patients: 3
  TEAE Blood bilirubin unconjugated increased, patients: 2
  TEAE Blood creatinine increased, patients: 2
  TEAE Fatigue, patients: 2
  TEAE Haemoglobin decreased, patients: 4
  TEAE Headache, patients: 4
  TEAE Lipase increased, patients: 3
  TEAE Pain, patients: 2
  TEAE Platelet count decreased, patients: 3
  TEAE Proteinuria, patients: 3
  TEAE Vomiting, patients: 3
Total (N = 14), CTCAE Grade ≥3
  TEAE Anaemia, patients: 0
  TEAE Aspartate aminotransferase increased, patients: 0
  TEAE Bilirubin conjugated increased, patients: 1
  TEAE Blood bilirubin increased, patients: 0
  TEAE Blood bilirubin unconjugated increased, patients: 0
  TEAE Blood creatinine increased, patients: 0
  TEAE Fatigue, patients: 0
  TEAE Haemoglobin decreased, patients: 0
  TEAE Headache, patients: 0
  TEAE Lipase increased, patients: 0
  TEAE Pain, patients: 0
  TEAE Platelet count decreased, patients: 0
  TEAE Proteinuria, patients: 0
  TEAE Vomiting, patients: 0
